System: S. aureus (Gram-positive bacterium) ATCC 6538
Experiment: Fluorescence detection of microcolonies on membrane after permeabilization and 5/6-CFDA labeling
Type: cell-based
Settings: agent used alone
Method: The tested strains of E. coli (Gram-negative bacterium) ATCC 8739 and of S. aureus (Gram-positive bacterium) ATCC 6538 or B. subtilis (Gram-positive bacterium) ATCC 6633 were preserved in cryotubes (Dutscher, ref. 028049) frozen at −80° C. prepared from freeze-dried strains obtained from collections.
For all the tests, the bacteria strains are diluted in tubes of peptone water (Biomérieux, ref. 42111). A cascade dilution is performed by adding 1 ml of the cryotube of the strain used to 9 ml of the tube of peptone water until the desired dilution is obtained. The concentration was adjusted in order to obtain on average 30 bacteria per sample. This concentration was verified on a Petri dish by a conventional count test on agar medium. […]
A universal fluorogenic marker, namely 5/6-carboxyfluorescein diacetate (CFDA) (Sigma 21879-100MG) diluted in DMSO, is added to the permeabilization compositions in order to reach a final concentration of 100 μg/ml. […] The membrane is then removed from the labeling solution and placed in an illuminator equipped with a camera in order to measure the fluorescence emitted between 520 and 530 nm.
The fluorescence intensity results summarized in Tables 1 to 3 below correspond to the light energy (luminescence) captured and recorded to the nearest pixel by the CCD camera using the Sherlock image analyzing software (Insosys Inc.). […]

CCCCCCCCO[C@@H]1O[C@H](CO)[C@@H](O)[C@H](O)[C@H]1O [N-Octyl-β-D-glucopyranoside]
Permeabilization of Gram-positive bacteria, in words: unsuitable

From patent US8097404B2, “Composition and method for cell permeabilization comprising N-octyl-β-D-glucopyranoside, sodium polyphosphates, rubidium chloride and/or lithium chloride for detecting living cells on a membrane” (Millipore Corporation, priority 2008, dated 2012)
